Strand notation (5' to 3'): a small letter for the sugar, then the base; units joined by * are phosphorothioate-linked, units joined directly phosphodiester-linked; [ ] holds rarer units or linkages, { } end groups; capitals alone tell only the bases. k = constrained ethyl (cEt); [5mC] = 5-methylcytosine; d = 2'-deoxy (DNA)
system: human SMAD7 mRNA; experiment: Antisense inhibition of human SMAD7 mRNA expression in Hep3B cells by 3-10-3 cEt gapmers, 10,000 nM, electroporation (Example 2); format: cell-based; conditions: Hep3B cells, 10,000 nM antisense oligonucleotide, electroporation, approximately 24 hours, RT-PCR primer probe set RTS5062, relative to untreated control cells
How it was run: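 Hep3B cells (20,000/well) were electroporated with 10,000 nM 3-10-3 cEt gapmer (16-mer, phosphorothioate, 5-methylcytosines) and harvested after about 24 h. SMAD7 mRNA quantified by RT-qPCR with primer probe set RTS5062, normalized to total RNA by RiboGreen; percent inhibition relative to untreated cells.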

Substance | % Inhibition
800051 (antisense k[5mC]*kA*kG*d[5mC]*dA*d[5mC]*dA*dT*d[5mC]*d[5mC]*dA*d[5mC]*d[5mC]*k[5mC]*kT*kT) [compound 800051] | 20%
799939 (antisense kG*k[5mC]*kA*dT*dT*dT*dA*dA*dT*dT*dT*dG*d[5mC]*kA*kA*k[5mC]) [compound 799939] | 38%
800093 (antisense kT*kT*kG*dA*dA*dG*dG*d[5mC]*d[5mC]*dA*dG*d[5mC]*dT*k[5mC]*k[5mC]*kT) [compound 800093] | 48%

same assay, conditions: Hep3B cells, electroporation with 10,000 nM antisense oligonucleotide, approximately 24 hours, RTS5062, percent inhibition of SMAD7 mRNA relative to untreated control cells

Substance | % Inhibition
799646 (antisense k[5mC]*kA*kG*dA*dA*dA*d[5mC]*dT*d[5mC]*d[5mC]*dA*dG*dA*kT*kG*kG) [compound 799646] | 18%
799849 (kA*kT*kA*dA*dG*d[5mC]*d[5mC]*dG*dA*dT*d[5mC]*dA*d[5mC]*kA*kA*kA; antisense) [compound 799849] | 41%
799309 (antisense kG*k[5mC]*kA*d[5mC]*dG*d[5mC]*dT*d[5mC]*dT*dA*dA*dA*d[5mC]*kA*kG*k[5mC]) [compound 799309] | 42%

same assay, conditions: Hep3B cells, electroporation with 10,000 nM antisense oligonucleotide, approximately 24 hours, SMAD7 mRNA by RT-PCR (RTS5062), relative to untreated control cells

Substance | % Inhibition
799492 (antisense kA*kA*kA*d[5mC]*dA*dA*dT*dA*dG*dA*dG*dG*d[5mC]*kA*kG*kG) [compound 799492] | 58%
830094 (kT*k[5mC]*kT*dT*dA*d[5mC]*d[5mC]*dT*dG*dA*dA*dA*dG*k[5mC]*k[5mC]*k[5mC]; antisense) [compound 830094] | 30%
799868 (k[5mC]*kA*kT*dA*dA*dA*d[5mC]*dA*dT*dG*dG*dG*d[5mC]*kT*k[5mC]*k[5mC]; antisense) [compound 799868] | 34%
799335 (kT*kG*k[5mC]*dA*dG*dG*dA*dG*d[5mC]*dA*dG*dT*dG*k[5mC]*k[5mC]*k[5mC]; antisense) [compound 799335] | 31%
830181 (antisense kG*k[5mC]*kG*dG*d[5mC]*dT*dT*d[5mC]*d[5mC]*dT*dG*dT*dG*k[5mC]*k[5mC]*k[5mC]) [compound 830181] | 10%
798768 (kG*kA*kG*dA*dT*d[5mC]*d[5mC]*dG*dG*d[5mC]*d[5mC]*dA*d[5mC]*k[5mC]*kT*kG; antisense) [compound 798768] | 42%
799329 (kG*kT*kA*dT*dG*d[5mC]*dA*d[5mC]*dA*d[5mC]*dT*d[5mC]*dT*k[5mC]*k[5mC]*k[5mC]; antisense) [compound 799329] | 0%
799507 (antisense kA*k[5mC]*kT*d[5mC]*dA*dT*dT*dA*dG*dT*d[5mC]*d[5mC]*d[5mC]*kA*kT*kG) [compound 799507] | 34%
799451 (antisense kA*kA*kA*dG*dA*dA*d[5mC]*dA*d[5mC]*dA*dG*d[5mC]*dA*k[5mC]*kT*kG) [compound 799451] | 41%
798754 (kA*kG*k[5mC]*d[5mC]*dT*dG*d[5mC]*dA*dG*dT*d[5mC]*d[5mC]*dA*kG*kG*k[5mC]; antisense) [compound 798754] | 16%
800046 (kG*kG*k[5mC]*d[5mC]*dA*dA*d[5mC]*dA*dG*dG*dA*dG*dG*kA*kG*kG; antisense) [compound 800046] | 42%
830197 (antisense kG*kT*kT*dA*dA*dT*dG*dG*d[5mC]*d[5mC]*d[5mC]*dA*dG*k[5mC]*k[5mC]*k[5mC]) [compound 830197] | 31%
798919 (kT*kG*k[5mC]*dT*d[5mC]*dA*dG*d[5mC]*dT*d[5mC]*dA*d[5mC]*dG*k[5mC]*kT*k[5mC]; antisense) [compound 798919] | 45%
830158 (antisense kA*kA*kT*dT*dG*dA*dG*dA*dA*d[5mC]*dT*dG*dT*kG*k[5mC]*k[5mC]) [compound 830158] | 43%
798678 (antisense k[5mC]*kG*k[5mC]*dA*d[5mC]*dA*d[5mC]*d[5mC]*dA*dT*dG*dA*dA*kG*kA*kA) [compound 798678] | 45%
830109 (kA*kT*kT*d[5mC]*dA*dT*dT*dA*dA*dG*d[5mC]*d[5mC]*d[5mC]*kG*k[5mC]*kT; antisense) [compound 830109] | 44%
799449 (antisense k[5mC]*kA*kG*d[5mC]*dA*d[5mC]*dT*dG*d[5mC]*dA*dT*d[5mC]*dG*kG*kA*kA) [compound 799449] | 37%
798831 (kA*kT*kA*dG*dA*dA*dG*dA*dT*dA*dT*d[5mC]*d[5mC]*kA*kG*kA; antisense) [compound 798831] | 0%
798866 (kG*kT*k[5mC]*d[5mC]*dT*dG*dG*dA*dG*dT*d[5mC]*d[5mC]*dG*kG*kG*kT; antisense) [compound 798866] | 20%

same assay, conditions: Hep3B cells, electroporation with 10,000 nM antisense oligonucleotide, approximately 24 hours, primer probe set RTS5062, relative to untreated control cells

Substance | % inhibition of SMAD7 mRNA expression | % Inhibition
799031 (kT*kG*k[5mC]*d[5mC]*dT*d[5mC]*dT*dG*d[5mC]*d[5mC]*d[5mC]*d[5mC]*dA*k[5mC]*kT*kG; antisense) [compound 799031] | 46% | 
799361 (kG*kT*k[5mC]*d[5mC]*dT*dA*dT*dT*dT*dG*dG*dT*dT*k[5mC]*k[5mC]*k[5mC]; antisense) [compound 799361] | 77% | 
798761 (kG*kA*k[5mC]*dG*dA*dG*dG*dG*d[5mC]*dG*dG*d[5mC]*dT*kG*k[5mC]*kG; antisense) [compound 798761] | 39% | 
799035 (k[5mC]*kG*k[5mC]*d[5mC]*dA*dG*d[5mC]*dT*dT*dG*d[5mC]*d[5mC]*d[5mC]*kA*kG*kG; antisense) [compound 799035] |  | 0%
799051 (antisense kT*kG*kG*dA*d[5mC]*dA*dG*dG*d[5mC]*d[5mC]*d[5mC]*dG*dT*kG*kT*k[5mC]) [compound 799051] | 32% | 
790626 (kG*kA*kT*dA*dA*d[5mC]*dA*d[5mC]*d[5mC]*d[5mC]*dA*dT*dA*kG*kA*kA; antisense) [compound 790626] | 0% | 
798763 (kG*kA*kG*dT*dA*dG*dG*dA*d[5mC]*dG*dA*dG*dG*kG*k[5mC]*kG; antisense) [compound 798763] | 53% | 
799009 (kT*k[5mC]*k[5mC]*d[5mC]*d[5mC]*dA*dT*d[5mC]*dT*dG*d[5mC]*d[5mC]*dG*k[5mC]*kT*k[5mC]; antisense) [compound 799009] | 62% | 
798705 (antisense kG*kG*k[5mC]*dT*dG*dT*d[5mC]*d[5mC]*dG*dT*d[5mC]*dG*d[5mC]*k[5mC]*k[5mC]*k[5mC]) [compound 798705] | 41% | 
798785 (k[5mC]*kT*kA*dG*dT*dT*d[5mC]*dG*d[5mC]*dA*dG*dA*dG*kT*k[5mC]*kG; antisense) [compound 798785] | 0% | 
798776 (kA*k[5mC]*kA*d[5mC]*dA*dG*d[5mC]*d[5mC]*dT*d[5mC]*dT*dT*dG*kA*k[5mC]*kT; antisense) [compound 798776] | 34% | 
799461 (antisense k[5mC]*kT*kG*d[5mC]*dG*dA*dG*dA*dG*dA*dA*dA*dA*kA*kG*kA) [compound 799461] | 62% | 

same assay, conditions: Hep3B cells, electroporation, 10,000 nM antisense oligonucleotide, approximately 24 hours, RTS5062, relative to untreated control cells

Substance | % inhibition of SMAD7 mRNA expression
799676 (antisense kG*kA*kA*dA*d[5mC]*d[5mC]*dA*dT*dG*dA*dG*d[5mC]*dT*kG*kT*kT) [compound 799676] | 64%
799692 (antisense kA*k[5mC]*kA*d[5mC]*dA*dG*dT*dA*dA*d[5mC]*dA*dA*d[5mC]*kA*kA*kT) [compound 799692] | 0%
799303 (antisense kG*kA*k[5mC]*dA*dA*dA*d[5mC]*d[5mC]*dA*d[5mC]*dA*d[5mC]*dA*kT*kT*k[5mC]) [compound 799303] | 73%
799578 (kA*k[5mC]*k[5mC]*dT*dT*d[5mC]*d[5mC]*dG*dA*dA*dA*dG*dG*kA*k[5mC]*k[5mC]; antisense) [compound 799578] | 76%

same assay, conditions: SMAD7 mRNA, Hep3B cells, 10,000 nM antisense oligonucleotide, electroporation, approximately 24 hours, primer probe set RTS5062, relative to untreated control cells

Substance | % Inhibition
772614 (kG*kA*k[5mC]*dT*d[5mC]*dT*dT*dG*dT*dT*dG*dT*d[5mC]*k[5mC]*kG*kA; antisense) [compound 772614] | 43%
800883 (antisense kA*k[5mC]*k[5mC]*dA*dT*dT*dT*dA*dT*d[5mC]*dT*dG*dG*kT*kG*kT) [compound 800883] | 50%
790696 (k[5mC]*kA*kA*dA*dG*dG*dT*dA*dA*dG*d[5mC]*d[5mC]*dA*kG*k[5mC]*kT; antisense) [compound 790696] | 41%
829751 (antisense kG*k[5mC]*kA*dG*d[5mC]*dT*d[5mC]*dG*d[5mC]*d[5mC]*dT*d[5mC]*d[5mC]*kT*k[5mC]*k[5mC]) [compound 829751] | 40%
790521 (kG*kG*k[5mC]*dT*dG*dT*dA*d[5mC]*dG*d[5mC]*d[5mC]*dT*dT*k[5mC]*kT*k[5mC]; antisense) [compound 790521] | 19%
829790 (k[5mC]*k[5mC]*k[5mC]*dG*dT*dA*dA*dG*dA*dT*dT*d[5mC]*dA*k[5mC]*kA*kG; antisense) [compound 829790] | 51%

same assay, conditions: SMAD7 mRNA, Hep3B cells, electroporation with 10,000 nM antisense oligonucleotide, approximately 24 hours, primer probe set RTS5062, relative to untreated control cells

Substance | % Inhibition
829981 (kG*kT*kG*dA*dT*dT*dG*d[5mC]*d[5mC]*dT*dT*dG*dA*kT*kA*kT; antisense) [compound 829981] | 14%
